Laboratory results published in patent US8946413B2 (Pfizer Inc., priority 2008, dated 2015).
Like-named read-outs stand apart in the source and are kept apart here.

Target: T1, CCR2 (Homo sapiens, UniProt P41597)
T1 construct: (leukophoresis pack); host or cells: human peripheral blood mononuclear cells (PBMCs) from a normal human leukophoresis pack
Assay: hCCR2 (125-I hMCP-1) small molecule binding assay on human PBMCs
Conditions: 125I-MCP-1, human PBMCs
Excerpt: The CCR2 antagonist activity of compounds of the invention can be reported as the inhibitor concentration required for 50% inhibition (IC50 values) of specific binding in receptor binding assays using 125I-labeled MCP-1, as ligand, and Peripheral Blood Mononuclear Cells (PBMCs) prepared from normal human whole blood via density gradient centrifugation. Specific binding is defined as the total binding (e.g., total cpm on filters) minus the non-specific binding. Non-specific binding is defined as the amount of cpm still defected in the presence of excess unlabeled competitor (e.g., MCP-1),
Human PBMCs were used to test compounds of the invention in a binding assay. For example, 200,000 to 500,000 cells were incubated with 0.1 to 0.2 nM 125I-labeled MCP-1, with or without unlabeled competitor (10 nM MCP-1) or various concentrations of compounds to be tested. 125I-labeled MCP-1, were prepared by suitable methods or purchased from commercial vendors (Perkin Elmer, Boston Mass.). The binding reactions were performed in 50 to 250 μL of a binding buffer consisting of […] pH 7.2, and 0.1% BSA (bovine serum albumin), for 30 minutes at room temperature. The binding reactions were terminated by harvesting the membranes by rapid filtration through glass fiber filters (Perkin Elmer) which was presoaked in 0.3% polyethyleneimine or Phosphate Buffered Saline (PBS). The filters were rinsed with approximately 600 μL of binding buffer containing, 0.5 M NaCl or PBS, then dried, and the amount of bound radioactivity was determined by counting on a Gamma Counter (Perkin Elmer).
More specifically, the following assay may be employed to determine IC50 values for the compounds of the present invention.
hCCR2 (125-I hMCP-1) Small Molecule Binding Assay
Normal human leukophoresis pack contents, available from Biological Specialty Corporation, Colmar, Pa., is diluted 1:1 with PBS, divided into 50 ml conical tubes (preferably less than 40 mls per tube), and underlayed with 10 mls of Ficoll-Paque PLUS (GE Healthcare 17-1440-02). The tubes are centrifuged at 2800 rpm in a clinical centrifuge at room temperature for 30 mins, with no brake. The plasma layer is suctioned, and the buffycoat layer is collected. The collected buffycoat layer is washed twice with 50 mls PBS, and centrifuged at 1400 rpm with brake. The cells are counted. The cells are then diluted to 1×10^7 cells per ml in binding buffer.
96 well plates (such as, for example, Millipore MultiScreen96 plates) are pre-wet with about 100 μl binding buffer (RPMI+0.1% BSA+20 mM HEPES), and blotted just prior to compound addition.
5 μl of 50 μM test compounds in 100% DMSO are dotted onto U-bottom polypropylene 96-well plates.
245 μl per well of Binding Buffer is added to each well for 1 μM compound concentration in 2% DMSO.
50 μl of 1 μM compound is transferred to pre-wetted Millipore plates. 50 μl per well of 1×10E7 cells per ml of freshly prepared human PBMCs are added.
The samples are pre-incubated at room temperature for 30 minutes or 1 hour.
50 μl of 450 pM 125-I-hMCP-1 (Perkin-Elmer/NEN cat#NEX332025UC) is added for a final concentration 125-I-hMCP-1 of 150 pM per well.
The final test compound concentration is 0.333 uM in 150 μl total volume with 0.67% DMSO in all wells. Controls for this assay consist of 0% inhibition and 100% inhibition with 1 uM hMCP-1 (saturating conditions). All wells are run in duplicate. Controls may be in replicates of eight.
The samples are incubated at room temperature for 30 minutes.
The buffer is suctioned through the Millipore plates. The plates are washed three times with Wash Buffer (PRMI+0.1% BSA+20 mM HEPES+ 0.4 M NaC).
The plate underdrain is removed. The plate filters are allowed to dry. The filters are then punched out into plastic tubes.
Finally, the sample is counted an a Gamma Counter.
All IC50 plates were repeated for an n=2.
The following table summarizes the IC50 values identified through the described assay.

[1] = 30 min preincubation, read-out: IC50 (nM) 30 min preinc
[2] = 1 hr preincubation, read-out: IC50 (nM) 1 hr preinc

T1 sequence (P41597 whole entry): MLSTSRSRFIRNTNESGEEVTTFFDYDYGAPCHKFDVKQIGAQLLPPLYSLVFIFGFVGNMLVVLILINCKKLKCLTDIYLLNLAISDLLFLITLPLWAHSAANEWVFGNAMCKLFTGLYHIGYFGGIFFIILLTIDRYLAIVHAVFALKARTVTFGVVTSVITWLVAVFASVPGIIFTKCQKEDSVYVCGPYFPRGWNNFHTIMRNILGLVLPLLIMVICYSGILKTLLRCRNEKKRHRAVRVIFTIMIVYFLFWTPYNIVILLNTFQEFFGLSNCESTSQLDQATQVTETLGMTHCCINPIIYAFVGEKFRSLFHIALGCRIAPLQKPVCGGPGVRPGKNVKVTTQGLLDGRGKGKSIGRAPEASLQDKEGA

IC50 [1] [nM]	IC50 [2] [nM]	Compound
2.47		CC[C@]1(C(=O)N2C[C@@H]3C[C@H]2CN3c2cc(C(F)(F)F)ccn2)CC[C@@H](N[C@H]2CCOC[C@H]2OC)C1 [Example 1, 1,5-anhydro-2,3-dideoxy-3-{[(1R,3S)-3-ethyl-3-({(1S,4S)-5-[4-(trifluoromethyl)pyridin-2-yl]-2,5-diazabicyclo[2.2.1]hept-2-yl}carbonyl)cyclopentyl]amino}-4-O-methyl-D-erythro-pentitol]
3.16		CC[C@]1(C(=O)N2C[C@@H]3C[C@H]2CN3c2nccc(C(F)(F)F)n2)CC[C@@H](N[C@H]2CCOC[C@H]2OC)C1 [Example 2, 1,5-anhydro-2,3-dideoxy-3-{[(1R,3S)-3-ethyl-3-({(1S,4S)-5-[4-(trifluoromethyl)pyrimidin-2-yl]-2,5-diazabicyclo[2.2.1]hept-2-yl}carbonyl)cyclopentyl]amino}-4-O-methyl-D-erythro-pentitol]
17.8		CC[C@]1(C(=O)N2C[C@@H]3C[C@H]2CN3c2cc(C(F)(F)F)ncn2)CC[C@@H](N[C@H]2CCOC[C@H]2OC)C1 [Example 3, 1,5-anhydro-2,3-dideoxy-3-{[(1R,3S)-3-ethyl-3-({(1S,4S)-5-[6-(trifluoromethyl)pyrimidin-4-yl]-2,5-diazabicyclo[2.2.1]hept-2-yl}carbonyl)cyclopentyl]amino}-4-O-methyl-D-erythro-pentitol]
3.98		CC[C@]1(C(=O)N2C[C@@H]3C[C@H]2CN3c2cncc(C(F)(F)F)n2)CC[C@@H](N[C@H]2CCOC[C@H]2OC)C1 [Example 4, 1,5-anhydro-2,3-dideoxy-3-{[(1R,3S)-3-ethyl-3-({(1S,4S)-5-[6-(trifluoromethyl)pyrazin-2-yl]-2,5-diazabicyclo[2.2.1]hept-2-yl}carbonyl)cyclopentyl]amino}-4-O-methyl-D-erythro-pentitol]
13.3		CC[C@]1(C(=O)N2C[C@@H]3C[C@H]2CN3c2ccnc(C(F)(F)F)n2)CC[C@@H](N[C@H]2CCOC[C@H]2OC)C1 [Example 5, 1,5-anhydro-2,3-dideoxy-3-{[(1R,3S)-3-ethyl-3-({(1S,4S)-5-[2-(trifluoromethyl)pyrimidin-4-yl]-2,5-diazabicyclo[2.2.1]hept-2-yl}carbonyl)cyclopentyl]amino}-4-O-methyl-D-erythro-pentitol]
1.73		CC[C@]1(C(=O)N2C[C@@H]3C[C@H]2CN3c2cccc(C(F)(F)F)n2)CC[C@@H](N[C@H]2CCOC[C@H]2OC)C1 [Example 6, 1,5-anhydro-2,3-dideoxy-3-{[(1R,3S)-3-ethyl-3-({(1S,4S)-5-[6-(trifluoromethyl)pyridin-2-yl]-2,5-diazabicyclo[2.2.1]hept-2-yl}carbonyl)cyclopentyl]amino}-4-O-methyl-D-erythro-pentitol]
17.1		CC[C@]1(C(=O)N2C[C@@H]3C[C@H]2CN3c2ccnc(C(F)(F)F)c2)CC[C@@H](N[C@H]2CCOC[C@H]2OC)C1 [Example 7, 1,5-anhydro-2,3-dideoxy-3-{[(1R,3S)-3-ethyl-3-({(1S,4S)-5-[2-(trifluoromethyl)pyridin-4-yl]-2,5-diazabicyclo[2.2.1]hept-2-yl}carbonyl)cyclopentyl]amino}-4-O-methyl-D-erythro-pentitol]
10.7		CC[C@]1(C(=O)N2C[C@@H]3C[C@H]2CN3c2nccc(C(F)(F)F)c2F)CC[C@@H](N[C@H]2CCOC[C@H]2OC)C1 [Example 8, 1,5-anhydro-2,3-dideoxy-3-{[(1R,3S)-3-ethyl-3-({(1S,4S)-5-[3-fluoro-4-(trifluoromethyl)pyridin-2-yl]-2,5-diazabicyclo[2.2.1]hept-2-yl}carbonyl)cyclopentyl]amino}-4-O-methyl-D-erythro-pentitol]
30.7		CO[C@@H]1COCC[C@@H]1N[C@@H]1CC[C@](C)(C(=O)N2C[C@@H]3C[C@H]2CN3c2cc(C(F)(F)F)ccn2)C1 [Example 9, 1,5-anhydro-2,3-dideoxy-3-{[(1R,3S)-3-methyl-3-({(1S,4S)-5-[4-(trifluoromethyl)pyridine-2-yl]-2,5-diazabicyclo[2.2.1]hept-2-yl}carbonyl)cyclopentyl]amino}-4-O-methyl-D-erythro-pentitol]
83.8		CO[C@@H]1COCC[C@@H]1N[C@@H]1CC[C@](C)(C(=O)N2C[C@@H]3C[C@H]2CN3c2cncc(C(F)(F)F)n2)C1 [Example 10, 1,5-anhydro-2,3-dideoxy-3-{[(1R,3S)-3-methyl-3-({(1S,4S)-5-[6-(trifluoromethyl)pyrazin-2-yl]-2,5-diazabicyclo[2.2.1]hept-2-yl}carbonyl)cyclopentyl]amino}-4-O-methyl-D-erythro-pentitol]
6.72	2.44	CO[C@@H]1COCC[C@@H]1N[C@@H]1CC[C@@](C(=O)N2C[C@@H]3C[C@H]2CN3c2cc(C(F)(F)F)ccn2)(C(C)C)C1 [Example 11, 1,5-anhydro-2,3-dideoxy-3-{[(1R,3S)-3-isopropyl-3-({(1S,4S)-5-[4-(trifluoromethyl)pyridin-2-yl]-2,5-diazabicyclo[2.2.1]hept-2-yl}carbonyl)cyclopentyl]amino}-4-O-methyl-D-erythro-pentitol]
11.1	1.7	CO[C@@H]1COCC[C@@H]1N[C@@H]1CC[C@@](C(=O)N2C[C@@H]3C[C@H]2CN3c2nccc(C(F)(F)F)n2)(C(C)C)C1 [Example 12, 1,5-anhydro-2,3-dideoxy-3-{[(1R,3S)-3-isopropyl-3-({(1S,4S)-5-[4-(trifluoromethyl)pyrimidin-2-yl]-2,5-diazabicyclo[2.2.1]hept-2-yl}carbonyl)cyclopentyl]amino}-4-O-methyl-D-erythro-pentitol]
10.4	2.3	CO[C@@H]1COCC[C@@H]1N[C@@H]1CC[C@@](C(=O)N2C[C@@H]3C[C@H]2CN3c2cncc(C(F)(F)F)n2)(C(C)C)C1 [Example 14, 1,5-anhydro-2,3-dideoxy-3-{[(1R,3S)-3-isopropyl-3-({(1S,4S)-5-[6-(trifluoromethyl)pyrazin-2-yl]-2,5-diazabicyclo[2.2.1]hept-2-yl}carbonyl)cyclopentyl]amino}-4-O-methyl-D-erythro-pentitol]
40	4.6	CO[C@@H]1COCC[C@@H]1N[C@@H]1CC[C@@](C(=O)N2C[C@@H]3C[C@H]2CN3c2ccnc(C(F)(F)F)n2)(C(C)C)C1 [Example 15, 1,5-anhydro-2,3-dideoxy-3-{[(1R,3S)-3-isopropyl-3-({(1S,4S)-5-[2-(trifluoromethyl)pyrimidin-4-yl]-2,5-diazabicyclo[2.2.1]hept-2-yl}carbonyl)cyclopentyl]amino}-4-O-methyl-D-erythro-pentitol]
9.95	1.1	CO[C@@H]1COCC[C@@H]1N[C@@H]1CC[C@@](C(=O)N2C[C@@H]3C[C@H]2CN3c2cccc(C(F)(F)F)n2)(C(C)C)C1 [Example 16, 1,5-anhydro-2,3-dideoxy-3-{[(1R,3S)-3-isopropyl-3-({(1S,4S)-5-[6-(trifluoromethyl)pyridin-2-yl]-2,5-diazabicyclo[2.2.1]hept-2-yl}carbonyl)cyclopentyl]amino}-4-O-methyl-D-erythro-pentitol]
13.7	5.8	CO[C@@H]1COCC[C@@H]1N[C@@H]1CC[C@@](C(=O)N2C[C@@H]3C[C@H]2CN3c2ccnc(C(F)(F)F)c2)(C(C)C)C1 [Example 17, 1,5-anhydro-2,3-dideoxy-3-{[(1R,3S)-3-isopropyl-3-({(1S,4S)-5-[2-(trifluoromethyl)pyridin-4-yl]-2,5-diazabicyclo[2.2.1]hept-2-yl}carbonyl)cyclopentyl]amino}-4-O-methyl-D-erythro-pentitol]
